Literature values as cited in PMC3949622, “Macrocyclic Pyridyl Polyoxazoles: Structure-Activity Studies of the Aminoalkyl Side-Chain on G-Quadruplex Stabilization and Cytotoxic Activity” (Molecules, 2013).
Several values for one entry are separate records, joined by “and”; a condition that tells them apart may be missing. Identical values can stand only once. Like-named read-outs stand apart in the source and are kept apart here. Marks after values point to notes of the source that are not given here.

How the values were obtained:
[1] = tested on: human telomeric sequence d[T2G3(T2AG3)3A] (hTel) quadruplex DNA; settings: change in transition temperature of hTel quadruplex DNA; ref [21]; cited from earlier work
Method: Table 1 Effect of various pyridyl polyoxazoles on the thermal stabilities of duplex and quadruplex DNA. | column: hTel -Quadruplex DNA / ΔTtran (°C)^a || The results observed with the hTel quadruplex DNA however, stand in stark contrast with the ST duplex DNA results. In the series of three 4-phenyl substituted analogs compound 8 and 11 strongly stabilize G-quadruplex DNA by 20.5 and 24.6 °C respectively. Compound 8 has the tertiary amine directly connected to the phenyl while in 11 the amine is separated from the phenyl ring by two methylene groups. In contrast, the 3-dimethylaminopropyl analog 12 stabilizes G-quadruplex DNA to a much lesser extent. When the side-chain is attached to the 5-position of the phenyl ring the results are quite dram ...

[2] = tested on: Salmon testes (ST) duplex DNA; settings: change in transition temperature of ST duplex DNA; ref [21]; cited from earlier work
Source text: Table 1 Effect of various pyridyl polyoxazoles on the thermal stabilities of duplex and quadruplex DNA. | column: Salmon Testes Duplex DNA / ΔTtran (°C) ^a

RPMI 8402 cells = settings: ref [21], cited from earlier work
Source text: (§1) Table 2 Relative cytotoxic activities. IC50 values (μM) ^a. | column: RPMI 8402 || The development of G-quadruplex stabilizers as a potential new class of anticancer agents hinges on the ability to design compounds that stabilize only G-quadruplexes and not other nucleic acid structures such as duplex or triplex DNA [15]. While a diverse array of compounds have been reported to stabilize G-quadruplex DNA [1], most also have some ability to stabilize duplex DNA. The natural product telomestatin for example, is reported to stabilize G-quadruplex DNA with 70:1 selectivity over duplex DNA [16, 17]. In contrast, the synthetic macrocyclic hexaoxazole HXDV (Figure 1) demonst ...

KB3-1 cells = settings: ref [21], cited from earlier work
Source text: as §1, with “KB3-1 wt.” for “RPMI 8402”

[3] = tested on: human breast cancer xenograft (MDA-MB-435); settings: MDA-MB-435 xenograft in athymic nude mice; ref [21]; cited from earlier work
Source text: as §1, with “The” for “Table 2 Relative cytotoxic activities. IC50 values (μM) ^a. | column: RPMI 8402 || The”

## CN(C)CCc1cc2cc(c1)CNC(=O)c1coc(n1)-c1coc(n1)-c1cccc(n1)-c1nc(co1)-c1nc(co1)C(=O)NC2 [Compound 2]
[1]
  ΔTtran, hTel quadruplex DNA: 20.5 °C and 20.5 ^b °C
[2]
  ΔTtran, salmon testes duplex DNA: 0 ^b °C
RPMI 8402 cells; range given for analogs 1 and 2 together, read-out: IC50 against RPMI 8402 cells
  IC50: 90 to 180 nM
RPMI 8402 cells; read-out: IC50, RPMI 8402
  IC50: 180 nM
KB3-1 cells; range given for analogs 1 and 2 together, read-out: IC50 against KB3-1 cells
  IC50: 30 to 40 nM
KB3-1 cells; read-out: IC50, KB3-1 wt.
  IC50: 40 nM
[3]
  %T/C (average tumor volumes of treated/control animals): 27.7%
